# Measurements published in patent publication US9828396B2, “Alkyne compounds for treatment of complement mediated disorders” (Achillion Pharmaceuticals, Inc., priority 2014, dated 2017).
# Biological target: Human factor D (Homo sapiens (Human), UniProt P00746)
# Assay: Human Factor D Assay
# Type: biochemical
# Conditions: Human factor D 80 nM, substrate Z-L-Lys-SBzl, assay of Example 12
# Experimental: Example 12. Human Factor D Assay
# Human factor D (purified from human serum, Complement Technology, Inc.) at 80 nM final concentration is incubated with test compound at various concentrations for 5 minutes at room temperature in 50 mM Tris, 1M NaCl, pH 7.5. A synthetic substrate Z-L-Lys-SBzl and DTNB (Ellman's reagent) are added to final concentrations of 100 μM each. The increase in color is recorded at OD405 nm in a microplate in kinetic mode over 30 minutes with 30 second time points in a spectrofluorimeter. IC50 values are calculated by non-linear regression from the percentage of inhibition of complement factor D activity as a function of test compound concentration.
# Human factor D, sequence (P00746 26-253): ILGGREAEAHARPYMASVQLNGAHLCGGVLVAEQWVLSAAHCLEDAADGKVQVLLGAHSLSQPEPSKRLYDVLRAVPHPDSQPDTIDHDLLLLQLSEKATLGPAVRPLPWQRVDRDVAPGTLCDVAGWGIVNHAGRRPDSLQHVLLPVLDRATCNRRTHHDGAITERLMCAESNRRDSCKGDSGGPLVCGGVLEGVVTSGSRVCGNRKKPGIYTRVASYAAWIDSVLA
row,Compound,IC50
1,"NC(=O)c1nn(CC(=O)N2C[C@H](F)C[C@H]2C(=O)Nc2cccc(-c3ncccc3Cl)c2F)c2ccc(C#Cc3ncccn3)cc12 [Compound 28, 1-(2-((2S,4R)-2-(3-(3-chloropyridin-2-yl)-2-fluorophenylcarbamoyl)-4-fluoropyrrolidin-1-yl)-2-oxoethyl)-5-(pyrimidin-2-ylethynyl)-1H-indazole-3-carboxamide]",< 1000 nM
2,"NC(=O)c1nn(CC(=O)N2C[C@H](F)C[C@H]2C(=O)NCc2cccc(Cl)c2F)c2ccc(C#Cc3cn[nH]c3)cc12 [Compound 29, 5-((1H-pyrazol-4-yl)ethynyl)-1-(2-((2S,4R)-2-(3-chloro-2-fluorobenzylcarbamoyl)-4-fluoropyrrolidin-1-yl)-2-oxoethyl)-1H-indazole-3-carboxamide]",< 1000 nM
3,"NC(=O)c1nn(CC(=O)N2C[C@H](F)C[C@H]2C(=O)Nc2cccc(-c3cccc(Cl)c3)c2F)c2ccc(C#Cc3ncccn3)cc12 [Compound 30, 1-(2-((2S,4R)-2-(3′-chloro-2-fluorobiphenyl-3-ylcarbamoyl)-4-fluoropyrrolidin-1-yl)-2-oxoethyl)-5-(pyrimidin-2-ylethynyl)-1H-indazole-3-carboxamide]",< 1000 nM
4,"NC(=O)c1nn(CC(=O)N2C[C@H](F)C[C@H]2C(=O)N2CCc3c([nH]c4ccccc34)C2)c2ccc(C#Cc3ncccn3)cc12 [Compound 31, 1-(2-((2S,4R)-4-fluoro-2-(2,3,4,9-tetrahydro-1H-pyrido[3,4-b]indole-2-carbonyl)pyrrolidin-1-yl)-2-oxoethyl)-5-(pyrimidin-2-ylethynyl)-1H-indazole-3-carboxamide]",> 10000 nM
5,"NC(=O)c1nn(CC(=O)N2C[C@H](F)C[C@H]2C(=O)NCc2cccc(Cl)c2F)c2cnc(C#Cc3ncccn3)cc12 [Compound 32, 1-(2-((2S,4R)-2-(3-chloro-2-fluorobenzylcarbamoyl)-4-fluoropyrrolidin-1-yl)-2-oxoethyl)-5-(pyrimidin-2-ylethynyl)-1H-pyrazolo[3,4-c]pyridine-3-carboxamide]",< 1000 nM
6,"NC(=O)c1nn(CC(=O)N2C[C@H](F)C[C@H]2C(=O)Nc2cccc(C(F)(F)F)n2)c2ccc(C#Cc3ncccn3)cc12 [Compound 33, 1-(2-((2S,4R)-4-fluoro-2-(6-(trifluoromethyl)pyridin-2-ylcarbamoyl)pyrrolidin-1-yl)-2-oxoethyl)-5-(pyrimidin-2-ylethynyl)-1H-indazole-3-carboxamide]",< 1000 nM
7,"NC(=O)c1nn(CC(=O)N2[C@@H]3C[C@@H]3C[C@H]2C(=O)Nc2cccc(OC(F)(F)F)c2F)c2ccc(C#Cc3ncccn3)cc12 [Compound 34, 1-(2-((1R,3S,5R)-3-(2-fluoro-3-(trifluoromethoxy)phenyl-carbamoyl)-2-azabicyclo[3.1.0]hexan-2-yl)-2-oxoethyl)-5-(pyrimidin-2-ylethynyl)-1H-indazole-3-carboxamide]",< 1000 nM
8,"NC(=O)c1nn(CC(=O)N2C[C@H](F)C[C@H]2C(=O)NCc2cccc(Cl)c2F)c2ccc(C#Cc3ccc(F)cn3)cc12 [Compound 35, 1-(2-((2S,4R)-2-(3-chloro-2-fluorobenzylcarbamoyl)-4-fluoropyrrolidin-1-yl)-2-oxoethyl)-5-((5-fluoropyridin-2-yl)ethynyl)-1H-indazole-3-carboxamide]",< 1000 nM
9,"NC(=O)c1nn(CC(=O)N2C[C@H](F)C[C@H]2C(=O)NCc2cccc(Cl)c2F)c2ccc(C#Cc3cccc(N)n3)cc12 [Compound 36, 5-((6-aminopyridin-2-yl)ethynyl)-1-(2-((2S,4R)-2-(3-chloro-2-fluorobenzylcarbamoyl)-4-fluoropyrrolidin-1-yl)-2-oxoethyl)-1H-indazole-3-carboxamide]",< 1000 nM
10,"NC(=O)c1nn(CC(=O)N2C[C@H](F)C[C@H]2C(=O)NCc2cccc(Cl)c2F)c2ccc(C#Cc3cccc(F)n3)cc12 [Compound 37, 1-(2-((2S,4R)-2-(3-chloro-2-fluorobenzylcarbamoyl)-4-fluoropyrrolidin-1-yl)-2-oxoethyl)-5-((6-fluoropyridin-2-yl)ethynyl)-1H-indazole-3-carboxamide]",< 1000 nM
11,"NC(=O)c1nn(CC(=O)N2C[C@H](F)C[C@H]2C(=O)Nc2cccc(OC(F)(F)F)c2F)c2ccc(C#Cc3ncccn3)cc12 [Compound 38, 1-(2-((2S,4R)-4-fluoro-2-(2-fluoro-3-(trifluoromethoxy)phenyl-carbamoyl)pyrrolidin-1-yl)-2-oxoethyl)-5-(pyrimidin-2-ylethynyl)-1H-indazole-3-carboxamide]",< 1000 nM
12,"NC(=O)c1nn(CC(=O)N2C[C@H](F)C[C@H]2C(=O)Nc2cccc(Br)n2)c2ccc(C#Cc3ncccn3)cc12 [Compound 39, 1-(2-((2S,4R)-2-(6-bromopyridin-2-ylcarbamoyl)-4-fluoropyrrolidin-1-yl)-2-oxoethyl)-5-(pyrimidin-2-ylethynyl)-1H-indazole-3-carboxamide]",< 1000 nM
13,"NC(=O)c1nn(CC(=O)N2C[C@H](F)C[C@H]2C(=O)NCc2cccc(Cl)c2F)c2ccc(C#Cc3ncc(F)cn3)cc12 [Compound 40, 1-(2-((2S,4R)-2-(3-chloro-2-fluorobenzylcarbamoyl)-4-fluoropyrrolidin-1-yl)-2-oxoethyl)-5-((5-fluoropyrimidin-2-yl)ethynyl)-1H-indazole-3-carboxamide]",< 1000 nM
14,"NC(=O)c1nn(CC(=O)N2[C@@H]3C[C@@H]3C[C@H]2C(=O)Nc2cccc(Br)n2)c2ccc(C#Cc3ncccn3)cc12 [Compound 41, 1-(2-((1R,3S,5R)-3-(6-bromopyridin-2-ylcarbamoyl)-2-azabicyclo[3.1.0]hexan-2-yl)-2-oxoethyl)-5-(pyrimidin-2-ylethynyl)-1H-indazole-3-carboxamide]",< 1000 nM
15,"CC(=O)c1cn(CC(=O)N2C[C@H](F)C[C@H]2C(=O)Nc2cccc(Br)n2)c2ccc(C#Cc3ncccn3)cc12 [Compound 42, (2S,4R)-1-(2-(3-acetyl-5-(pyrimidin-2-ylethynyl)-1H-indol-1-yl)acetyl)-N-(6-bromopyridin-2-yl)-4-fluoropyrrolidine-2-carboxamide]",< 1000 nM
16,"NC(=O)c1nn(CC(=O)N2[C@@H]3C[C@@H]3C[C@H]2C(=O)Nc2cccc(Br)n2)c2ccc(C#Cc3ncc(F)cn3)cc12 [Compound 43, 1-(2-((1R,3S,5R)-3-(6-bromopyridin-2-ylcarbamoyl)-2-azabicyclo[3.1.0]hexan-2-yl)-2-oxoethyl)-5-((5-fluoropyrimidin-2-yl)ethynyl)-1H-indazole-3-carboxamide]",< 1000 nM
17,"CC1(C)CCCC(NC(=O)[C@@H]2C[C@@H](F)CN2C(=O)Cn2nc(C(N)=O)c3cc(C#Cc4ncccn4)ccc32)C1 (stereo partly drawn) [Compound 44, 1-(2-((2S,4R)-2-(3,3-dimethylcyclohexylcarbamoyl)-4-fluoropyrrolidin-1-yl)-2-oxoethyl)-5-(pyrimidin-2-ylethynyl)-1H-indazole-3-carboxamide]",< 1000 nM
18,"CC(C)=C(F)CNC(=O)[C@@H]1C[C@@H](F)CN1C(=O)Cn1nc(C(N)=O)c2cc(C#Cc3ncccn3)ccc21 [Compound 45, 1-(2-((2S,4R)-4-fluoro-2-(2-fluoro-3-methylbut-2-enylcarbamoyl)pyrrolidin-1-yl)-2-oxoethyl)-5-(pyrimidin-2-ylethynyl)-1H-indazole-3-carboxamide]",< 1000 nM
